Columns and labels:
cytokine-stimulated VSMC = experiment: Effect of arginine oligomers on NO production in cytokine-stimulated VSMC (NO2, Griess); format: cell-based, rat
Method: Rat VSMCs were prepared from the media layer of thoracic aorta of Sprague-Dawley rats by the explant method. The cells were cultured in Dulbecco's modified Eagle's medium (DMEM, Gibco BRL, Gaithersburg, Md.) containing 10% fetal calf serum, 100 U/ml penicillin and 100 μg/ml streptomycin at 37° C. under a humidified atmosphere containing 5% CO2. After subconfluent growth, cells were cultured with MEM Select Amine Kit (Gibco BRL, Gaithersburg, Md.) to be treated by specific concentrations of extracellular free L-arginine. Experiments were performed using cultured cells at passage levels of 5-10.
Extracellular NO production was measured as its stable oxidative metabolite, nitrite (NO2). At the end of each incubation, samples of the medium (80 μl) were collected, and NO2 measurement was performed using the Griess reaction facilitated by a commercial calorimetric assay (Cayman Chemical, Ann Arbor, Mich.). Values of NO2 production were corrected with relative cell count assessed by a cell proliferation kit II (XTT) (Boeheringer Mannheim, Germany).
Subconfluent cells were pre-incubated with medium containing 100 μM arginine for 24 hours. The cells were then transiently pretreated with each arginine polymer for 30 minutes. After translocation, the cells were incubated with a mixture of IFN-γ (100 U/ml) and LPS (100 μg/ml) in medium containing 100 μM L-arginine for another 24 hours. In some experiments, L-NMMA (1 mM), a nitric oxide synthase inhibitor, was added to the medium.

[1] = test system: coronary vessels of transplanted PVG rat donor hearts; experiment: Heart transplant study (graft coronary artery disease, GCAD); format: in vivo; conditions: for % affected vessels / % luminal narrowing / I/M ratio: intracoronary 50 uM, 30 minutes
Method: In this study, PVG rat donor hearts (n=48) were transplanted heterotopically into the abdomen of ACI recipients. Donor hearts received either intracoronary PBS or intracoronary 50 uM (L)-arginine polymer (L-R5 or L-R9) for 30 minutes. (D-arginine polymers were not included in this study.) Each of these groups was further divided into 60 and 90 day study animals (n=6 each). Percent luminal narrowing, intima to media ratio (I/M), and percent affected vessels were determined as described in Example 11, below. Transfection efficiency was determined by infusing biotinylated R5 and R9, as in the preceding studies, and calculating the percentage of biotin positive nuclei divided by total number of nuclei.
PVG rat donor hearts (n=48) were transplanted heterotopically into the abdomen of ACI recipients. Donor hearts received either intracoronary PBS or intracoronary 50 uM (L)-arginine polymer (L-R5 or L-R9) for 30 minutes. Each group was further divided into 60 and 90 day study animals (n=6 each). Tissue cross sections (5μ) were stained with EVG (Elastica-van Gieson) preparation, and vessels were scored using computerized morphometry for analysis of % luminal narrowing, intima to media ratio (I/M), and % affected vessels. Transfection efficiency was determined by infusing biotinylated R5 and R9, as in preceding examples, and calculating the percentage of biotin positive nuclei divided by total number of nuclei. Results are described in Section IV C, above.

CNC(=N)NCCC[C@H](N)C(=O)O [L-NMMA, N^G-monomethyl L-arginine, reference compound]
enhancement of NO production in R7 treated cells after NO synthase inhibitor (cytokine-stimulated VSMC; L-NMMA (1 mM) added to R7 treated cells): abolished

hepta-L-lysine [K7, reference compound]
NO production (cytokine-stimulated VSMC; 100 μM, 30 minutes): did not increase the NO production

nona-L-arginine [R9]
NO production (cytokine-stimulated VSMC; pretreatment 30 minutes, then IFN-γ and LPS, 100 μM extracellular L-arginine): dose-dependent increases in NO production at doses as low as 10 μM | degree of enhancement of NO production (cytokine-stimulated VSMC; pretreatment 30 minutes, vs. vehicle treated cytokine-stimulated cells): 44±5.2% | GCAD compared to PBS controls ([1]; 60 and 90 days): significant reduction in GCAD | % affected vessels ([1]; 60 days): 6.5 ± 6.9% | % luminal narrowing ([1]; 60 days): 3.2 ± 3.8% | I/M ratio ([1]; 60 days): .03 ± .04 | % affected vessels ([1]; 90 days): 4.9 ± 7.1% | % luminal narrowing ([1]; 90 days): 1.6 ± 3.3% | I/M ratio ([1]; 90 days): .01 ± .02 | transfection of coronary vessels ([1]; biotinylated oligomer infused): marked transfection of the intima and media of coronary vessels
